Assay results: patent US20220088016A1, “CANCER TREATMENT USING MULTI-TARGETED KINASE INHIBITOR IN COMBINATION OF PROTEIN KINASE BIOMARKERS” (ZHEJIANG CROWNMAB BIOTECH CO. LTD., priority 2019, published 2022)

Assays:
[1] = target: CDK8 (Homo sapiens, UniProt P49336); test: Kinase profiling; format: binding; details: read-out: % Ctrl @ 1000 nM
[2] = target: PKNB (M.tuberculosis) (Mycobacterium tuberculosis, UniProt P9WI81); test: Kinase profiling; format: binding; details: read-out: % Ctrl @ 1000 nM
[3] = target: PIK3CD (Homo sapiens, UniProt O00329); test: Kinase profiling; format: binding; details: read-out: % Ctrl @ 1000 nM
[4] = target: WEE1 (Homo sapiens, UniProt P30291); test: Kinase profiling; format: binding; details: read-out: % Ctrl @ 1000 nM
[5] = target: TGFBR2 (Homo sapiens, UniProt P37173); test: Kinase profiling; format: binding; details: read-out: % Ctrl @ 1000 nM
Chain of TGFBR2 (P37173 23-567): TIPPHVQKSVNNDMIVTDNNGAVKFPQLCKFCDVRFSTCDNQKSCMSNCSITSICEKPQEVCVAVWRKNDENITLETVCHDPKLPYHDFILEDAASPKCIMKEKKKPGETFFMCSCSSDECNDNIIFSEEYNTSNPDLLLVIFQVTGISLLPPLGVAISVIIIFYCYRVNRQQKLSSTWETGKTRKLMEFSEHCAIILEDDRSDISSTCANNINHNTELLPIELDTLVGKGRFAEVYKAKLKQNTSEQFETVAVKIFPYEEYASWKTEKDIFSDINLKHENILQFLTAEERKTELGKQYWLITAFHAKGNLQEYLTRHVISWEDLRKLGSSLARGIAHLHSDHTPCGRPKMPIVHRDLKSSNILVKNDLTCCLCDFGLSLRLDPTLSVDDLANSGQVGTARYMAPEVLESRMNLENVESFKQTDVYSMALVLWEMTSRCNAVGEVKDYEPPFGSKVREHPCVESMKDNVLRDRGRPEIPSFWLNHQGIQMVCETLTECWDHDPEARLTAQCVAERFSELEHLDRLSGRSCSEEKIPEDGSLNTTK

[6] = target: PIM3 (Homo sapiens, UniProt Q86V86); test: Kinase profiling; format: binding; details: read-out: % Ctrl @ 1000 nM
[7] = target: ABL1-nonphosphorylated (Homo sapiens, UniProt P00519); test: Kinase profiling; format: binding; details: read-out: % Ctrl @ 1000 nM
[8] = target: PFPK5 (P.falciparum) (Plasmodium falciparum, UniProt P61075); test: Kinase profiling; format: binding; details: read-out: % Ctrl @ 1000 nM
[9] = target: TNIK (Homo sapiens, UniProt Q9UKE5); test: Kinase profiling; format: binding; details: read-out: % Ctrl @ 1000 nM
Chain of TNIK (Q9UKE5 whole entry): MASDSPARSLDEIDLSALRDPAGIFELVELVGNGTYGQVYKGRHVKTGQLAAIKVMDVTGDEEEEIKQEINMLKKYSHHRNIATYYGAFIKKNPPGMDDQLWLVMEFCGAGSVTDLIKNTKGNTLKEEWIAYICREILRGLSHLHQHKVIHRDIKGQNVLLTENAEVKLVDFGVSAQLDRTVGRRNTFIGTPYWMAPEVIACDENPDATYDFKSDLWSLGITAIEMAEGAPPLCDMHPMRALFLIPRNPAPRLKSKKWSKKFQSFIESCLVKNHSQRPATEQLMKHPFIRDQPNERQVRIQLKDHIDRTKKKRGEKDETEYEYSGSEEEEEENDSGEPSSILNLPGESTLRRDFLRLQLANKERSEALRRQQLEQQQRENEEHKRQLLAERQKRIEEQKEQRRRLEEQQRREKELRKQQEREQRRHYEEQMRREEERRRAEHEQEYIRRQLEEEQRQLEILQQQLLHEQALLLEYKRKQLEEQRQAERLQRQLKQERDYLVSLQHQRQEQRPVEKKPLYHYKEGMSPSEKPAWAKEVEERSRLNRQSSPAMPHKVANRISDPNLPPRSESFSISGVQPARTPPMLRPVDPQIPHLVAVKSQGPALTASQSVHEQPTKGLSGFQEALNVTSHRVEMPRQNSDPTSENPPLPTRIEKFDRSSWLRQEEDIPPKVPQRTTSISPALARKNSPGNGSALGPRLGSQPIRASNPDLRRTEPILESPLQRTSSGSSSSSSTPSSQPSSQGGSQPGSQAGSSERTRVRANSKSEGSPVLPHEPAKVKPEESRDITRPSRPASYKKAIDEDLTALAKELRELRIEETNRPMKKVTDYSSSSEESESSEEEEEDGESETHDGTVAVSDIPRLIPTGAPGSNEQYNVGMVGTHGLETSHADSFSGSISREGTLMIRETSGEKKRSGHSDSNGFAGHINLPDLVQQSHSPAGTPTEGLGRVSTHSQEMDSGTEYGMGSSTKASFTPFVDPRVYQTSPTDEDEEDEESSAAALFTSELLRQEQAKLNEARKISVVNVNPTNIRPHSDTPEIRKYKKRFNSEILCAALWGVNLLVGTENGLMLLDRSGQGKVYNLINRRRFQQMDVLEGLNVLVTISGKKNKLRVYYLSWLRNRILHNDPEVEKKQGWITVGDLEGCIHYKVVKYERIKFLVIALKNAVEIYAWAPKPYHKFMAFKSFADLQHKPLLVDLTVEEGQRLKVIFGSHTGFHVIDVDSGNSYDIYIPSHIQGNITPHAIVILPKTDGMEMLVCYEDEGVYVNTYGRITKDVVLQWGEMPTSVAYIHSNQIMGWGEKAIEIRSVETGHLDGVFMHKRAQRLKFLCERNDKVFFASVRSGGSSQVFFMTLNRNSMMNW

[10] = target: HIPK2 (Homo sapiens, UniProt Q9H2X6); test: Kinase profiling; format: binding; details: read-out: % Ctrl @ 1000 nM
[11] = target: RET (V804L) (Homo sapiens, UniProt P07949, V804L); test: Kinase profiling; format: binding; details: read-out: % Ctrl @ 1000 nM
[12] = target: MARK2 (Homo sapiens, UniProt Q7KZI7); test: Kinase profiling; format: binding; details: read-out: % Ctrl @ 1000 nM
[13] = target: BRAF (Homo sapiens, UniProt P15056); test: Kinase profiling; format: binding; details: read-out: % Ctrl @ 1000 nM
[14] = target: PHKG2 (Homo sapiens, UniProt P15735); test: Kinase profiling; format: binding; details: read-out: % Ctrl @ 1000 nM
[15] = target: T1, OSR1 (Homo sapiens, UniProt O95747); test: Kinase profiling; format: binding; details: read-out: % Ctrl @ 1000 nM
T1 construct: T7 phage fusion (said for most assays); made in house

[16] = target: LRRK2 (G2019S) (Homo sapiens, UniProt Q5S007, G2019S); test: Kinase profiling; format: binding; details: read-out: % Ctrl @ 1000 nM
[17] = target: EGFR (L747-T751del, Sins) (Homo sapiens, UniProt P00533, DEL747-750/T751S); test: Kinase profiling; format: binding; details: read-out: % Ctrl @ 1000 nM
Chain of EGFR (L747-T751del, Sins) (P00533 with tags, fused parts or gaps DEL747-750/T751S limits assumed): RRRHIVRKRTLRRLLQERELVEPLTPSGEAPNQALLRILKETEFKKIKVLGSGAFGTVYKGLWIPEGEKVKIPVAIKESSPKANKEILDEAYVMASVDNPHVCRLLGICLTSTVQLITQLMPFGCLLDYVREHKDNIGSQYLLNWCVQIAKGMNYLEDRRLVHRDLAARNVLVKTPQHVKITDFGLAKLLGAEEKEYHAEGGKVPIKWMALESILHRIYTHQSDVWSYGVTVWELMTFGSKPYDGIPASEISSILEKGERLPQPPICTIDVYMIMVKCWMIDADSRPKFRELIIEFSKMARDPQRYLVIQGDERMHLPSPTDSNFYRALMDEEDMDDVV

[18] = target: PIKFYVE (Homo sapiens, UniProt Q9Y2I7); test: Kinase profiling; format: binding; details: read-out: % Ctrl @ 1000 nM
[19] = target: RSK3 (Kin.Dom.2-C-terminal) (Homo sapiens, UniProt Q15349); test: Kinase profiling; format: binding; details: read-out: % Ctrl @ 1000 nM
[20] = target: T2, MKK7 (Homo sapiens, UniProt O14733); test: Kinase profiling; format: binding; details: read-out: % Ctrl @ 1000 nM
T2 construct: T7 phage fusion (stated for most kinases of the panel only); made in house; host or cells: T7 phage in E. coli (BL21-derived) or HEK-293 cells

[21] = target: SRMS (Homo sapiens, UniProt Q9H3Y6); test: Kinase profiling; format: binding; details: read-out: % Ctrl @ 1000 nM
[22] = target: FYN (Homo sapiens, UniProt P06241); test: Kinase profiling; format: binding; details: read-out: % Ctrl @ 1000 nM
[23] = target: EGFR (E746-A750del) (Homo sapiens, UniProt P00533, DEL746-750); test: Kinase profiling; format: binding; details: read-out: % Ctrl @ 1000 nM
[24] = target: TYRO3 (Homo sapiens, UniProt Q06418); test: Kinase profiling; format: binding; details: read-out: % Ctrl @ 1000 nM
[25] = target: LTK (Homo sapiens, UniProt P29376); test: Kinase profiling; format: binding; details: read-out: % Ctrl @ 1000 nM
[26] = target: T3, MEK3 (Homo sapiens, UniProt P46734); test: Kinase profiling; format: binding; details: read-out: % Ctrl @ 1000 nM
T3 construct: T7 phage fusion (stated for most kinases of the panel only); made in house; host or cells: T7 phage in E. coli (BL21-derived) or HEK-293 cells

[27] = target: ERK1 (Homo sapiens, UniProt P27361); test: Kinase profiling; format: binding; details: read-out: % Ctrl @ 1000 nM
[28] = target: T4, MEK2 (Homo sapiens, UniProt P36507); test: Kinase profiling; format: binding; details: read-out: % Ctrl @ 1000 nM
T4 construct: T7 phage fusion (stated for most kinases of the panel only); made in house; host or cells: T7 phage in E. coli (BL21-derived) or HEK-293 cells

[29] = system: FLT3 (ITD, D835V); test: Kinase profiling; format: binding
[30] = target: CIT (Homo sapiens, UniProt O14578); test: Kinase profiling; format: binding; details: read-out: % Ctrl @ 1000 nM
[31] = target: CSNK1E (Homo sapiens, UniProt P49674); test: Kinase profiling; format: binding; details: read-out: % Ctrl @ 1000 nM
[32] = system: M-NFS-60 cells; test: Proliferation of M-NFS-60 cells (CTG assay); format: cell-based, mouse; details: M-NFS-60 (CSF-1 dependent), 3 days
Method: Two syngeneic cell lines M-NFS-60 and RAW264.7 and engineered BaF3 hCSFIR cell line were starved and then tested with CBT-102 and other test articles for 3 days in the temperature of 37° C., 5% CO2 and 95% humidity. The cell viability was then detected using CTG assay. The software of GraphPad Prism was used to calculate IC50.
CSF-1 dependent mouse myeloid M-NFS-60 cells were employed as target cells while a CSF-1 independent cell line Raw 264.7 was used as a negative control. In addition to CBT-102, the study also included 3 CSF-1R inhibitors: GW2580, BLZ945 and Pexidartinib.

[33] = target: T5, MEK4 (Homo sapiens, UniProt P45985); test: Kinase profiling; format: binding; details: read-out: % Ctrl @ 1000 nM
T5 construct: T7 phage fusion (stated for most kinases of the panel only); made in house; host or cells: T7 phage in E. coli (BL21-derived) or HEK-293 cells
T5 sequence (P45985 whole entry, the tested form may be a part): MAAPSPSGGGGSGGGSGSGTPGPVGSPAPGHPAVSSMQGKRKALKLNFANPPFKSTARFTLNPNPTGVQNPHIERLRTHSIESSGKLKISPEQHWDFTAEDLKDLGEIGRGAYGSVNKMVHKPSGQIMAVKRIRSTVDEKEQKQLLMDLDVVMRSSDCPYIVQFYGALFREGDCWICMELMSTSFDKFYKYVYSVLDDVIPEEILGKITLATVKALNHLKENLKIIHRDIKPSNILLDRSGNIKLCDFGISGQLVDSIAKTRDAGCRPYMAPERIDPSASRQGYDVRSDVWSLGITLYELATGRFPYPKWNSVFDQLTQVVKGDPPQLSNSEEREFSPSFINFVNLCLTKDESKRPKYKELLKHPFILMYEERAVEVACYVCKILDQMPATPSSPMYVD

[34] = target: T6, MLK2 (Homo sapiens, UniProt Q02779); test: Kinase profiling; format: binding; details: read-out: % Ctrl @ 1000 nM
T6 construct: T7 phage fusion (stated for most kinases of the panel only); made in house; host or cells: T7 phage in E. coli (BL21-derived) or HEK-293 cells
T6 sequence (Q02779 whole entry, the tested form may be a part): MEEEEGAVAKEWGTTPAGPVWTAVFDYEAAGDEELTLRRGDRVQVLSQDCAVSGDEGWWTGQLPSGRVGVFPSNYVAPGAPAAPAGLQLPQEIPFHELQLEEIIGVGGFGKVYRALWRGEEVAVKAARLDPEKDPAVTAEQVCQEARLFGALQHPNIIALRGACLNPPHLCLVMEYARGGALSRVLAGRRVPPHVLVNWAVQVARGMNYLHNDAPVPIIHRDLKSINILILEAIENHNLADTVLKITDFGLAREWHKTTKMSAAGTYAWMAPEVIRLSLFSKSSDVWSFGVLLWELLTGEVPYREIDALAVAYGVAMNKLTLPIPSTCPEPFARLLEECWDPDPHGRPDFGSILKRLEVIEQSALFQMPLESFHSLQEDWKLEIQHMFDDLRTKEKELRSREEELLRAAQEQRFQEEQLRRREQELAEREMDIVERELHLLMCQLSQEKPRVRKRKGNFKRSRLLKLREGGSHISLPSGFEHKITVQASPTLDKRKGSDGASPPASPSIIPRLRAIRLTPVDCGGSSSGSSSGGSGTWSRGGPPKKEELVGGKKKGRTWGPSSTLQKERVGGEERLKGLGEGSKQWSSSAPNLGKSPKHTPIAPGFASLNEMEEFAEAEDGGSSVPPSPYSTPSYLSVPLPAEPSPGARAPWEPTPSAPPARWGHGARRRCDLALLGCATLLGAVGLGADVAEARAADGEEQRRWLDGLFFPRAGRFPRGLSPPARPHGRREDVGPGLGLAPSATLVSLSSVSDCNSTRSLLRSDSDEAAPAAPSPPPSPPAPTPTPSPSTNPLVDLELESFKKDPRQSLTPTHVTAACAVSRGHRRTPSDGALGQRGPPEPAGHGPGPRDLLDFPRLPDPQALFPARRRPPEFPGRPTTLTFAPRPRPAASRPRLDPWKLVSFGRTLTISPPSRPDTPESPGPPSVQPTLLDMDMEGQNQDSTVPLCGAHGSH

[35] = target: KIT (V559D) (Homo sapiens, UniProt P10721, V559D); test: Kinase profiling; format: binding; details: read-out: % Ctrl @ 1000 nM
Chain of KIT (V559D) (P10721 26-976 V559D): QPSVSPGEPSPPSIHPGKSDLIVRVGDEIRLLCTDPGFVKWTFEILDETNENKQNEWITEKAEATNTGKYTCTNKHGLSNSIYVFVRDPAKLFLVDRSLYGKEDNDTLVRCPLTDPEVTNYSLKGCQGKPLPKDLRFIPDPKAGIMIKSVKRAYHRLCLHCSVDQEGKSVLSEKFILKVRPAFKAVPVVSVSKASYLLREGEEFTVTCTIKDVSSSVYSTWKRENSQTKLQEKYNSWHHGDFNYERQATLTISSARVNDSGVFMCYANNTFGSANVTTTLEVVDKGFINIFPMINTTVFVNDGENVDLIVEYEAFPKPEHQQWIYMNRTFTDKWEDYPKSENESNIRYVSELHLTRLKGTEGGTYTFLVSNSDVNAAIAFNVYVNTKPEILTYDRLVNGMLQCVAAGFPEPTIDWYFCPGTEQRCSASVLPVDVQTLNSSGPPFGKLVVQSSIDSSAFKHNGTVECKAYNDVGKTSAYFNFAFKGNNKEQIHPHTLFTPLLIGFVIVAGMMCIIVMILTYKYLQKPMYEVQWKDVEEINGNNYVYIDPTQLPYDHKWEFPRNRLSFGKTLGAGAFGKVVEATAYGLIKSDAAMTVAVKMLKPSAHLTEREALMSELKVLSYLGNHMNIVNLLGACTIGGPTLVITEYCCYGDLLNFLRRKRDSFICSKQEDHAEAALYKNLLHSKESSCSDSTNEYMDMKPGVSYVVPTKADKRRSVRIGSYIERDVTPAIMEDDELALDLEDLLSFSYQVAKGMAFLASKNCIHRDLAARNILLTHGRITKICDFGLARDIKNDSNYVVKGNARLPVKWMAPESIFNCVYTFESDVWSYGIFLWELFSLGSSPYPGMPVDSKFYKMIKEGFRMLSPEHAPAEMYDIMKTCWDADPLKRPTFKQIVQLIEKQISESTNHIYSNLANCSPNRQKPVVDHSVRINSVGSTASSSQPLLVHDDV

## Cc1cc(Oc2cc(NC(=O)C3CC3)ncn2)ccc1NC(=O)Nc1ccc(Cl)c(C(F)(F)F)c1 [CBT-102]
[1]
  remaining activity at 1 µM: 14%
[2]
  remaining activity at 1 µM: 100%
[3]
  remaining activity at 1 µM: 100%
[4]
  remaining activity at 1 µM: 92%
[5]
  remaining activity at 1 µM: 56%
[6]
  remaining activity at 1 µM: 98%
[7]
  remaining activity at 1 µM: 3.3%
[8]
  remaining activity at 1 µM: 100%
[9]
  remaining activity at 1 µM: 8.3%
[10]
  remaining activity at 1 µM: 90%
[11]
  remaining activity at 1 µM: 42%
[12]
  remaining activity at 1 µM: 76%
[13]
  remaining activity at 1 µM: 6.1%
[14]
  remaining activity at 1 µM: 87%
[15]
  remaining activity at 1 µM: 96%
[16]
  remaining activity at 1 µM: 38%
[17]
  remaining activity at 1 µM: 88%
[18]
  remaining activity at 1 µM: 91%
[19]
  remaining activity at 1 µM: 92%
[20]
  remaining activity at 1 µM: 66%
[21]
  remaining activity at 1 µM: 99%
[22]
  remaining activity at 1 µM: 76%
[23]
  remaining activity at 1 µM: 95%
[24]
  remaining activity at 1 µM: 82%
[25]
  remaining activity at 1 µM: 100%
[26]
  remaining activity at 1 µM: 90%
[27]
  remaining activity at 1 µM: 91%
[28]
  remaining activity at 1 µM: 76%
[29]
  % Ctrl @ 1000 nM: 98%
[30]
  remaining activity at 1 µM: 87%
[31]
  remaining activity at 1 µM: 100%
[32]
  IC50: 0.343 µM
[32]; Mus musculus, 72 h
  IC50: 0.631 µM
[33]
  remaining activity at 1 µM: 100%
[34]
  remaining activity at 1 µM: 99%
[35]
  remaining activity at 1 µM: 0%
